# According to patent US9481659B2, “Selective heterocyclic sphingosine 1 phosphate receptor modulators” (Celgene International II SÀRL, priority 2011, dated 2016):
# Where two headings read alike, the source gives them in different places.
# Key:
# S1P1/EDG1 = S1P1/EDG1 (Homo sapiens, UniProt P21453); test: S1P1 CRE-bla CHOK1 reporter assay, inhibition of Forskolin induced cAMP; format: cell-based; settings: S1P1 CRE-bla CHOK1 cells, 2 μM Forskolin
# Method in brief: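 CRE-bla CHO K1 cells stably expressing human S1P1 were treated 4 hrs at 37° C with 10-point compound dilutions plus 2 μM Forskolin. Inhibition of cAMP-driven β-lactamase reporter was read with a FRET substrate loaded 2 hrs at room temperature.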
# S1P4 = biological target: T1, S1P4 (Homo sapiens, UniProt O95977); test: Specificity over other S1P receptors: S1P4-bla TANGO U2OS; format: cell-based; settings: without Forskolin, read-out: S1P4 agonist value (EC50)
# T1 construct: Tango fusion: TEV protease site plus GAL4-VP16 transcription factor (own knowledge of the Tango format); host or cells: U2OS (bla TANGO)
# T1 sequence (O95977 1-384): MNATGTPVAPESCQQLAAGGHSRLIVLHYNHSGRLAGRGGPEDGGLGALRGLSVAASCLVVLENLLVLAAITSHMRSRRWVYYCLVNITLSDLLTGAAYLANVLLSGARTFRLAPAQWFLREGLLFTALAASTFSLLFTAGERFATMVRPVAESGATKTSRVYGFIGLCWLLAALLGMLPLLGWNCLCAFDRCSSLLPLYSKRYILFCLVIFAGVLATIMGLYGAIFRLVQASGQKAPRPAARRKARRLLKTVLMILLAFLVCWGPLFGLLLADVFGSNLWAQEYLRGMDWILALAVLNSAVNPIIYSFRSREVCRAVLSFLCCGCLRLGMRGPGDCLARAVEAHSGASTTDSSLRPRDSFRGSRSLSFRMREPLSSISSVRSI
# Experimental: (§1) Cells were seeded into 384-well black wall/clear bottom plates at 10^4 cells/well/19.5 μl assay media (DMEM-phenol free, 0.5% charcoal/dextran stripped serum, 2 mM glutamine, 0.1 mM NEAA, 1 mM Na-Pyruvate, 25 mM Hepes) and incubated for 18 hrs at 37° C. in 5% CO2. Dose response curves (10-point) were generated in 10 mM Hepes, 0.1% Pluronic F127, in the presence of Forskolin. Cells were treated with 0.5 μl compound in the presence of 2 μM Forskolin for 4 hrs at 37° C. The FRET-based β-lactamase fluorescent substrate (LiveBLAzer™-FRET B/G Loading Kit CC4-AM; Invitrogen) was prepared according to manufacturer's directions, and incubated with cells for 2 hrs at room temperature.
# (§2) To assess compound specificity on other […] receptors the following cell lines were used: S1P2 CRE-bla CHOK1, S1P3-Gα15 NFAT-bla HEK293T (Invitrogen), S1P4-bla TANGO U2OS (Invitrogen), S1P5-bla TANGO U2OS (Invitrogen). The same assay set up for S1P1 was used but without Forskolin. S1P4 and S1P5 assays were performed in FreeStyle Expression medium (Invitrogen). S1P5 cells were incubated for 48 hrs in prior to treatment with compound.
# S1P2 = biological target: T2, S1P2 (Homo sapiens, UniProt O95136); test: Specificity over other S1P receptors: S1P2 CRE-bla CHOK1; format: cell-based; settings: S1P2 CRE-bla CHOK1, without Forskolin; read-out: S1P2 agonist value (EC50)
# T2 construct: expressed in transfected cells; host or cells: CRE-bla CHOK1
# T2 sequence (O95136 whole entry, species assumed): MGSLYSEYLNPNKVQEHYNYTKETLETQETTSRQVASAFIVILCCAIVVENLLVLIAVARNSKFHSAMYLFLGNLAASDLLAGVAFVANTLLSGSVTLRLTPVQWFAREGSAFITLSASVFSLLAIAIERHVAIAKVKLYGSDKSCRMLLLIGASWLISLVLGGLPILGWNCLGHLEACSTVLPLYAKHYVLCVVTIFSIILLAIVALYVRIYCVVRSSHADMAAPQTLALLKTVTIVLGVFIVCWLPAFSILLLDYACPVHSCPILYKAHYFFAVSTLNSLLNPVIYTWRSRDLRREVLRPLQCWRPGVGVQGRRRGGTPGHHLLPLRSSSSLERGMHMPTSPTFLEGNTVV
# Experimental: as §1, with “temperature. Plates were read at Ex:410/Em:458 and Ex:410/Em:522, and the response ratio determined Data was analyzed by non-linear regression to determine the EC50 for inhibition of Forskolin induced cAMP.” for “temperature.”
# as §2
# S1P3 = biological target: T3, S1P3 (Homo sapiens, UniProt Q99500); test: Specificity over other S1P receptors: S1P3-Gα15 NFAT-bla HEK293T; format: cell-based; settings: without Forskolin, read-out: S1P3 agonist value (EC50)
# T3 construct: host or cells: NFAT-bla HEK293T
# T3 sequence (Q99500 whole entry): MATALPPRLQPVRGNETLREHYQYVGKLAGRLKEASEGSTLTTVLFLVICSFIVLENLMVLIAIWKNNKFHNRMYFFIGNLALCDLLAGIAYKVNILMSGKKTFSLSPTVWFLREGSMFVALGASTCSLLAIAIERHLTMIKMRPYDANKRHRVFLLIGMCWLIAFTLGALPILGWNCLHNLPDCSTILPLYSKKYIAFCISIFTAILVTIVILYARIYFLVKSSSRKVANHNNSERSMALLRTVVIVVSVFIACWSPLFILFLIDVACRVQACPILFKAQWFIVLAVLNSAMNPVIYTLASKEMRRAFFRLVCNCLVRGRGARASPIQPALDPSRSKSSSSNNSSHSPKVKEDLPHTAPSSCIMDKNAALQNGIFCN
# Experimental: as §1, with “temperature. Plates were read at Ex:410/Em:458 and Ex:410/Em:522, and the response ratio determined Data was analyzed by non-linear regression to determine the EC50 for inhibition of Forskolin induced cAMP.” for “temperature.”
# as §2
# S1P5 = biological target: T4, S1P5 (Homo sapiens, UniProt Q9H228); test: Specificity over other S1P receptors: S1P5-bla TANGO U2OS; format: cell-based; settings: without Forskolin, read-out: S1P5 agonist value (EC50)
# T4 construct: Tango fusion: TEV protease site plus GAL4-VP16 transcription factor (own knowledge of the Tango format); host or cells: U2OS (bla TANGO)
# T4 sequence (Q9H228 whole entry, the tested form may be a part): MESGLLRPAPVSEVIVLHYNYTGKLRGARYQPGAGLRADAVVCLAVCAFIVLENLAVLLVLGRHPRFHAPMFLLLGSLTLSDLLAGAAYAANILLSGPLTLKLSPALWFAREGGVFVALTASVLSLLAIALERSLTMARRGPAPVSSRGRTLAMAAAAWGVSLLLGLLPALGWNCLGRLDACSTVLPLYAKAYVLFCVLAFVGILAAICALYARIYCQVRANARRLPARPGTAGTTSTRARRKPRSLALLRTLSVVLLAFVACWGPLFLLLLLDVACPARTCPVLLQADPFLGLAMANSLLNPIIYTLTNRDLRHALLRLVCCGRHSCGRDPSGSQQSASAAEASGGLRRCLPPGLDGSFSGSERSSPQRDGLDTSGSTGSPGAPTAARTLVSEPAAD
# Experimental: as §1, §2
# [1] = test system: CD4 or CD8 positive T cells; test: Lymphopenia in rats; format: in vivo; settings: for inhibition in vivo at 0.2 mg/kg: po, rat, 24 h after a 0.2 mg/kg single dose; for ED50: read-out: ED50 (estimated dose needed to produce 50% lymphopenia), rat, at 24 h after a 3-5 day dosing regimen
# Experimental: In rats: Female rats (Simonsen Laboratories, Gilroy Calif.) were housed in an ALAAC accredited facility and the research was approved by the facilities Institutional Animal Care and Use Committee (IACUC). The animals were acclimated to the laboratory for at least 5 days prior to initiation of experiments. Rats (n=3/compound/time-point) were dosed by oral gavage with 1 mg/kg compound formulated in a vehicle consisting of 5% DMSO/5% Tween 20 and 90% 0.1N HCL. Control rats were dosed PO with the vehicle. Whole blood was collected from isoflurane anesthetized rats via the retro-orbital sinus and terminal samples were collected by cardiac puncture into EDTA. Whole blood was incubated with mouse anti-rat CD32 (BD #550271), PE-mouse anti-rat CD45R/B220 (BD #554881), PECy5-mouse anti-rat CD4 (BD #554839), and APC-mouse anti-rat CD8a (eBioscience #17-0084) for 30 minutes on ice. Red blood cells were lysed using BD Pharm Lyse Lysing buffer (#555899) and white blood cells were analyzed with a BD FACSArray. Lymphopenia was expressed as the % of white blood cells that were CD4 or CD8 positive T cells. The overall lymphopenia response over 24 h was estimated by calculating the area under the effect curve (AUEC) using the linear trapezoidal rule. In some experiments, total lymphocyte counts were determined using a standard impedance based veterinary hematology analyzer (IDEXX Preclinical Research Services, Sacramento, Calif.).
# The percentage of lymphopenia at 24 h after a 0.2 mg/kg single dose regiment is reported. […] N/A is not available.
# [2] = agonist activity range, read-out: S1P1 ACTIVITY
# [3] = read-out: S1P1 agonist value (EC50)
# Sequence of S1P1/EDG1 (P21453 whole entry): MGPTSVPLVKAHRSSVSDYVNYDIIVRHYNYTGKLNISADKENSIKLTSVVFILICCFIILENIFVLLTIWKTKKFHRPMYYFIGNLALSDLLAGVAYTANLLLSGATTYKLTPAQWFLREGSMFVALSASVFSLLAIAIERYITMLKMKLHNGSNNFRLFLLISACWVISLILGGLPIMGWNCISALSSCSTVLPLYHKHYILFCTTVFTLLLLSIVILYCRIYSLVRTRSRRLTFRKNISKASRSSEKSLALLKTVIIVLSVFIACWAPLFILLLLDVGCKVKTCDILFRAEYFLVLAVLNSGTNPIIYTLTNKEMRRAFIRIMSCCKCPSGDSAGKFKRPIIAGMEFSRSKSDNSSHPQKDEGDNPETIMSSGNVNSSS
Structure (SMILES),EC50 (S1P1/EDG1; [2]),EC50 (S1P4),EC50 (S1P2),EC50 (S1P1/EDG1; [3]),EC50 (S1P3),EC50 (S1P5),inhibition in vivo at 0.2 mg/kg [1],ED50 [1]
"CC(C)Oc1ccc(-c2nnc(-c3cccc4c3CC[C@H]4NC(=O)N3CCOCC3)s2)cc1C#N [Compound 58, (R)—N-(4-(5-(3-cyano-4-isopropoxyphenyl)-1,3,4-thiadiazol-2-yl)-2,3-dihydro-1H-inden-1-yl)morpholine-4-carboxamide]",0.05 to 0.5 nM,> 10000 nM,> 10000 nM,–,–,–,–,–
"CC(C)Oc1ccc(-c2ncc(-c3cccc4c3CC[C@H]4NS(N)(=O)=O)s2)cc1C#N [Compound 166, (R)—N-(4-(2-(3-cyano-4-isopropoxyphenyl)thiazol-5-yl)-2,3-dihydro-1H-inden-1-yl)sulfamide]",0.05 to 0.5 nM,743 nM,8450 nM,0.14 nM,> 10000 nM,64 nM,47%,0.07 mg/kg
"CC(C)Oc1ccc(-c2ncc(-c3cccc4c3CC[C@H]4NC(=O)N3CCOCC3)s2)cc1C#N [Compound 186, (R)—N-(4-(2-(3-cyano-4-isopropoxyphenyl)thiazol-5-yl)-2,3-dihydro-1H-inden-1-yl)morpholine-4-carboxamide]",0.05 to 0.5 nM,> 10000 nM,> 10000 nM,–,–,–,–,–
"CC(C)Oc1ccc(-c2nnc(-c3cccc4c3CCC4NS(=O)(=O)CC(=O)N(C)C)s2)cc1C#N (stereo in doubt) [Compound 43, (R)-2-(N-(4-(5-(3-cyano-4-isopropoxyphenyl)-1,3,4-thiadiazol-2-yl)-2,3-dihydro-1H-inden-1-yl)sulfamoyl)-N,N-dimethylacetamide]",–,> 10000 nM,> 10000 nM,–,> 10000 nM,–,40%,–
"CC(C)Oc1ccc(-c2nnc(-c3cccc4c3CCC4NS(=O)(=O)CCO)s2)cc1C#N (stereo in doubt) [Compound 46, (R)—N-(4-(5-(3-cyano-4-isopropoxyphenyl)-1,3,4-thiadiazol-2-yl)-2,3-dihydro-1H-inden-1-yl)-2-hydroxyethanesulfonamide]",–,–,> 10000 nM,–,> 10000 nM,–,39%,–
"CC(C)Oc1ccc(-c2ncc(-c3cccc4c3CC[C@H]4NC(=O)N3CCCC3)s2)cc1C#N [Compound 172, (R)—N-(4-(2-(3-cyano-4-isopropoxyphenyl)thiazol-5-yl)-2,3-dihydro-1H-inden-1-yl)pyrrolidine-1-carboxamide]",0.05 to 0.5 nM,> 10000 nM,> 10000 nM,0.19 nM,> 10000 nM,203 nM,22%,0.2 mg/kg
"CC(C)Oc1ccc(-c2nnc(-c3cccc4c3CC[C@H]4NC(=O)N3CC[C@@H](N(C)C)C3)s2)cc1C#N [Compound 56, (R)—N—((R)-4-(5-(3-cyano-4-isopropoxyphenyl)-1,3,4-thiadiazol-2-yl)-2,3-dihydro-1H-inden-1-yl)-3-(dimethylamino)pyrrolidine-1-carboxamide]",0.05 to 0.5 nM,> 10000 nM,> 10000 nM,0.32 nM,> 10000 nM,139 nM,52%,–
CC(C)Oc1ccc(-c2ncc(-c3cccc4c3CC[C@H]4NC(=O)N3CCC[C@@H](O)C3)s2)cc1C#N [Compound 198],0.05 to 0.5 nM,–,–,–,–,–,–,–
"CC(C)Oc1ccc(-c2nnc(-c3cccc4c3CC[C@H]4NS(N)(=O)=O)s2)cc1C#N [Compound 48, (R)—N-(4-(5-(3-cyano-4-isopropoxyphenyl)-1,3,4-thiadiazol-2-yl)-2,3-dihydro-1H-inden-1-yl) sulfamide]",< 0.05 nM,–,–,–,–,–,–,–
"CC(C)Oc1ccc(-c2ncc(-c3cccc4c3CC[C@H]4NS(=O)(=O)CCN3CCC[C@@H](O)C3)s2)cc1C#N [Compound 143, N—((R)-4-(2-(3-cyano-4-isopropoxyphenyl)thiazol-5-yl)-2,3-dihydro-1H-inden-1-yl)-2-((R)-3-hydroxypiperidin-1-yl)ethanesulfonamide]",0.5 to 5 nM,–,–,–,–,–,–,–
"CC(C)Oc1ccc(-c2nnc(-c3cccc4c3CCC[C@@H]4NCC(=O)O)s2)cc1C#N [Compound 302, (S)-2-((5-(5-(3-cyano-4-isopropoxyphenyl)-1,3,4-thiadiazol-2-yl)-1,2,3,4-tetrahydronaphthalen-1-yl)amino)acetic acid]",0.05 to 0.5 nM,–,–,–,–,–,–,–
